The source of these data is patent publication US20220151236A1, “NOVEL OXADIAZOLE COMPOUNDS FOR CONTROLLING OR PREVENTING PHYTOPATHOGENIC FUNGI” (PI INDUSTRIES LTD., priority 2019, published 2022).

Structures can show the parent of a compound that is named as a salt.

The subject of the assay is Phakopsora pachyrhizi. The assay can be described thus: Phakopsora pachyrhizi Test on Soybean (preventive activity, greenhouse). The conditions noted are these: preventive spray on young Soybean plants, inoculated one day after treatment, rated 3, 7, 10 and 15 days after application, read-out: Efficacy (% control), disease severity compared to the untreated check. The class given is in vivo. The protocol:
Compounds were dissolved in 2% dimethyl sulfoxide/acetone and then mixed with water containing an emulsifier to a calibrated spray volume of 50 mL. This 50 mL spray solution was poured into spray bottles for further applications. To test the preventive activity of compounds, healthy young Soybean plants raised in the greenhouse were sprayed with the active compound preparation at the stated application rates inside the spray cabinets using hollow cone nozzles. One day after treatment, the plants were inoculated with a spore suspension containing 2×10^5 Phakopsora pachyrhizi conidia. The inoculated plants were then kept in a greenhouse chamber at 22-24° C. temperature and 80-90% relative humidity for disease expression. A visual assessment of the compound's performance was carried out by rating the disease severity (0-100% scale) on treated plants 3, 7, 10 and 15 days after application. Efficacy (% control) of the compounds was calculated by comparing the disease rating in the treatment with the one of the untreated control. The sprayed plants were also assessed for plant compatibility by recording symptoms like necrosis, chlorosis and stunting.
For the molecule `COc1cccc(NC(=O)c2cn3cc(-c4noc(C(F)(F)F)n4)ccc3n2)c1` [Compound 16, N-(3-methoxyphenyl)-6-(5-(trifluoromethyl)-1,2,4-oxadiazol-3-yl)imidazo[1,2-a]pyridine-2-carboxamide], the pest or weed control at 500 ppm was ≥ 70%.

As for `O=C(Nc1ccc(F)cc1F)c1cn2cc(-c3noc(C(F)(F)F)n3)ccc2n1` [Compound 17, N-(2,4-difluorophenyl)-6-(5-(trifluoromethyl)-1,2,4-oxadiazol-3-yl)imidazo[1,2-a]pyridine-2-carboxamide], the pest or weed control at 500 ppm was ≥ 70%.

`O=C(Nc1ccc(Cl)cc1)c1cn2cc(-c3noc(C(F)(F)F)n3)ccc2n1` [Compound 18, N-(4-chlorophenyl)-6-(5-(trifluoromethyl)-1,2,4-oxadiazol-3-yl)imidazo[1,2-a]pyridine-2-carboxamide]: the pest or weed control at 500 ppm was ≥ 70%.

For the molecule `Cc1ccc(NC(=O)c2cn3cc(-c4noc(C(F)(F)F)n4)ccc3n2)cc1` [Compound 19, N-(p-tolyl)-6-(5-(trifluoromethyl)-1,2,4-oxadiazol-3-yl)imidazo[1,2-a]pyridine-2-carboxamide], the pest or weed control at 500 ppm was ≥ 70%.

Take `O=C(Nc1ccccc1F)c1cn2cc(-c3noc(C(F)(F)F)n3)ccc2n1` [Compound 20, N-(2-fluorophenyl)-6-(5-(trifluoromethyl)-1,2,4-oxadiazol-3-yl)imidazo[1,2-a]pyridine-2-carboxamide]: the pest or weed control at 500 ppm is ≥ 70%.

Consider `CNC(=O)c1cn2cc(-c3noc(C(F)(F)F)n3)ccc2n1` [Compound 21, N-methyl-6-(5-(trifluoromethyl)-1,2,4-oxadiazol-3-yl)imidazo[1,2-a]pyridine-2-carboxamide], for which the pest or weed control at 500 ppm was ≥ 70%.

In the case of `COc1ccc(NC(=O)c2cn3cc(-c4noc(C(F)(F)F)n4)ccc3n2)cc1` [Compound 22, N-(4-methoxyphenyl)-6-(5-(trifluoromethyl)-1,2,4-oxadiazol-3-yl)imidazo[1,2-a]pyridine-2-carboxamide], the pest or weed control at 500 ppm is ≥ 70%.

Take `O=C(NCc1ccccc1)c1cn2cc(-c3noc(C(F)(F)F)n3)ccc2n1` [Compound 23, N-benzyl-6-(5-(trifluoromethyl)-1,2,4-oxadiazol-3-yl)imidazo[1,2-a]pyridine-2-carboxamide]: the pest or weed control at 500 ppm was ≥ 70%.

`O=C(Nc1cccc(F)c1)c1cn2cc(-c3noc(C(F)(F)F)n3)ccc2n1` [Compound 24, N-(3-fluorophenyl)-6-(5-(trifluoromethyl)-1,2,4-oxadiazol-3-yl)imidazo[1,2-a]pyridine-2-carboxamide]: the pest or weed control at 500 ppm was ≥ 70%.

In the case of `CN(C)C(=O)c1cn2cc(-c3noc(C(F)(F)F)n3)ccc2n1` [Compound 25, N,N-dimethyl-6-(5-(trifluoromethyl)-1,2,4-oxadiazol-3-yl)imidazo[1,2-a]pyridine-2-carboxamide], the pest or weed control at 500 ppm was ≥ 70%.

As to `O=C(Nc1ccc(Cl)cc1F)c1cn2cc(-c3noc(C(F)(F)F)n3)ccc2n1` [Compound 26, N-(4-chloro-2-fluorophenyl)-6-(5-(trifluoromethyl)-1,2,4-oxadiazol-3-yl)imidazo[1,2-a]pyridine-2-carboxamide], the pest or weed control at 500 ppm was ≥ 70%.

On to `N#Cc1ccc(NC(=O)c2cn3cc(-c4noc(C(F)(F)F)n4)ccc3n2)cc1` [Compound 27, N-(4-cyanophenyl)-6-(5-(trifluoromethyl)-1,2,4-oxadiazol-3-yl)imidazo[1,2-a]pyridine-2-carboxamide], for which the pest or weed control at 500 ppm was ≥ 70%.

In the case of `COc1ccccc1NC(=O)c1cn2cc(-c3noc(C(F)(F)F)n3)ccc2n1` [Compound 28, N-(2-methoxyphenyl)-6-(5-(trifluoromethyl)-1,2,4-oxadiazol-3-yl)imidazo[1,2-a]pyridine-2-carboxamide], the pest or weed control at 500 ppm was ≥ 70%.

Turning to `O=C(Nc1cccnc1)c1cn2cc(-c3noc(C(F)(F)F)n3)ccc2n1` [Compound 29, N-(pyridin-3-yl)-6-(5-(trifluoromethyl)-1,2,4-oxadiazol-3-yl)imidazo[1,2-a]pyridine-2-carboxamide], the pest or weed control at 500 ppm is ≥ 70%.

Turning to `O=C(Nc1c(F)cccc1F)c1cn2cc(-c3noc(C(F)(F)F)n3)ccc2n1` [Compound 30, N-(2,6-difluorophenyl)-6-(5-(trifluoromethyl)-1,2,4-oxadiazol-3-yl)imidazo[1,2-a]pyridine-2-carboxamide], the pest or weed control at 500 ppm was ≥ 70%.

For `O=C(NCc1cccc(F)c1)c1cn2cc(-c3noc(C(F)(F)F)n3)ccc2n1` [Compound 31, N-(3-fluorobenzyl)-6-(5-(trifluoromethyl)-1,2,4-oxadiazol-3-yl)imidazo[1,2-a]pyridine-2-carboxamide], the pest or weed control at 500 ppm was ≥ 70%.

As to `O=C(Nc1ccncc1)c1cn2cc(-c3noc(C(F)(F)F)n3)ccc2n1` [Compound 32, N-(pyridin-4-yl)-6-(5-(trifluoromethyl)-1,2,4-oxadiazol-3-yl)imidazo[1,2-a]pyridine-2-carboxamide], the pest or weed control at 500 ppm is ≥ 70%.

Regarding `COCCNC(=O)c1cn2ccc(-c3noc(C(F)(F)F)n3)cc2n1` [Compound 34, N-(2-methoxyethyl)-7-(5-(trifluoromethyl)-1,2,4-oxadiazol-3-yl)imidazo[1,2-a]pyridine-2-carboxamide], the pest or weed control at 500 ppm is ≥ 70%.

`CC(C)CNC(=O)c1cn2ccc(-c3noc(C(F)(F)F)n3)cc2n1` [Compound 35, N-isobutyl-7-(5-(trifluoromethyl)-1,2,4-oxadiazol-3-yl)imidazo[1,2-a]pyridine-2-carboxamide]: the pest or weed control at 500 ppm is ≥ 70%.

As for `CC(C)(C)CNC(=O)c1cn2ccc(-c3noc(C(F)(F)F)n3)cc2n1` [Compound 36, N-neopentyl-7-(5-(trifluoromethyl)-1,2,4-oxadiazol-3-yl)imidazo[1,2-a]pyridine-2-carboxamide], the pest or weed control at 500 ppm is ≥ 70%.

Turning to `O=C(NCc1ccc(Cl)cc1)c1cn2ccc(-c3noc(C(F)(F)F)n3)cc2n1` [Compound 38, N-(4-chlorobenzyl)-7-(5-(trifluoromethyl)-1,2,4-oxadiazol-3-yl)imidazo[1,2-a]pyridine-2-carboxamide], the pest or weed control at 500 ppm is ≥ 70%.

As to `O=C(NCc1cccc(Cl)c1)c1cn2ccc(-c3noc(C(F)(F)F)n3)cc2n1` [Compound 40, N-(3-chlorobenzyl)-7-(5-(trifluoromethyl)-1,2,4-oxadiazol-3-yl)imidazo[1,2-a]pyridine-2-carboxamide], the pest or weed control at 500 ppm is ≥ 70%.

In the case of `COc1cccc(CNC(=O)c2cn3ccc(-c4noc(C(F)(F)F)n4)cc3n2)c1` [Compound 41, N-(3-methoxybenzyl)-7-(5-(trifluoromethyl)-1,2,4-oxadiazol-3-yl)imidazo[1,2-a]pyridine-2-carboxamide], the pest or weed control at 500 ppm is ≥ 70%.

As for `O=C(NCc1ccccc1F)c1cn2ccc(-c3noc(C(F)(F)F)n3)cc2n1` [Compound 42, N-(2-fluorobenzyl)-7-(5-(trifluoromethyl)-1,2,4-oxadiazol-3-yl)imidazo[1,2-a]pyridine-2-carboxamide], the pest or weed control at 500 ppm was ≥ 70%.

Regarding `CN(C)c1ccc(CNC(=O)c2cn3ccc(-c4noc(C(F)(F)F)n4)cc3n2)cc1` [Compound 43, N-(4-(dimethylamino)benzyl)-7-(5-(trifluoromethyl)-1,2,4-oxadiazol-3-yl)imidazo[1,2-a]pyridine-2-carboxamide], the pest or weed control at 500 ppm is ≥ 70%.

Turning to `O=C(NCc1ccc(Cl)c(Cl)c1)c1cn2ccc(-c3noc(C(F)(F)F)n3)cc2n1` [Compound 44, N-(3,4-dichlorobenzyl)-7-(5-(trifluoromethyl)-1,2,4-oxadiazol-3-yl)imidazo[1,2-a]pyridine-2-carboxamide], the pest or weed control at 500 ppm is ≥ 70%.

`CCOC(=O)c1cn2ccc(-c3noc(C(F)(F)F)n3)cc2n1` [Compound 45, ethyl 7-(5-(trifluoromethyl)-1,2,4-oxadiazol-3-yl)imidazo[1,2-a]pyridine-2-carboxylate hydrobromide]: the pest or weed control at 500 ppm is ≥ 70%.

As to `FC(F)(F)c1nc(-c2ccn3cc(CSc4ccc(Cl)cc4)nc3c2)no1` [Compound 47, 3-(2-(((4-chlorophenyl)thio)methyl)imidazo[1,2-a]pyridin-7-yl)-5-(trifluoromethyl)-1,2,4-oxadiazole], the pest or weed control at 500 ppm was ≥ 70%.

`Fc1ccc(SCc2cn3ccc(-c4noc(C(F)(F)F)n4)cc3n2)cc1` [Compound 48, 3-(2-(((4-fluorophenyl)thio)methyl)imidazo[1,2-a]pyridin-7-yl)-5-(trifluoromethyl)-1,2,4-oxadiazole]: the pest or weed control at 500 ppm is ≥ 70%.

For `O=S(=O)(Cc1cn2ccc(-c3noc(C(F)(F)F)n3)cc2n1)c1ccc(F)cc1` [Compound 57, 3-(2-(((4-fluorophenyl)sulfonyl)methyl)imidazo[1,2-a]pyridin-7-yl)-5-(trifluoromethyl)-1,2,4-oxadiazole], the pest or weed control at 500 ppm is ≥ 70%.

As to `O=S(=O)(Cc1cn2ccc(-c3noc(C(F)(F)F)n3)cc2n1)c1ccccc1` [Compound 58, 3-(2-((phenylsulfonyl)methyl)imidazo[1,2-a]pyridin-7-yl)-5-(trifluoromethyl)-1,2,4-oxadiazole], the pest or weed control at 500 ppm was ≥ 70%.

In the case of `O=S(=O)(Cc1cn2ccc(-c3noc(C(F)(F)F)n3)cc2n1)c1ccccc1F` [Compound 59, 3-(2-(((2-fluorophenyl)sulfonyl)methyl)imidazo[1,2-a]pyridin-7-yl)-5-(trifluoromethyl)-1,2,4-oxadiazole], the pest or weed control at 500 ppm is ≥ 70%.
